In brackets after ≈: the same amount, converted by molar mass. Where two headings read alike, the source gives them in different places.
Experiments:
MraY from S. aureus = molecular target: T1, MraY from S. aureus (Staphylococcus aureus, UniProt Q2FZ93); assay: biochemical; type: biochemical
T1 sequence (Q2FZ93 1-321): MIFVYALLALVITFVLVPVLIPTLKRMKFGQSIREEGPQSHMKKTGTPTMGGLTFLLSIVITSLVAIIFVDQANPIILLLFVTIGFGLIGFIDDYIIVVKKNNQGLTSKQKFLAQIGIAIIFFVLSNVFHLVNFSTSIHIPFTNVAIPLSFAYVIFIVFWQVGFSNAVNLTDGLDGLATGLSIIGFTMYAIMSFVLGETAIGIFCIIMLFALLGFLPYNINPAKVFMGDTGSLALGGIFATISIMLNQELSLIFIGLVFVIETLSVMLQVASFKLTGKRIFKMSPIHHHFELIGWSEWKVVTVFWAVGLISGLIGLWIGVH

MraY from C. bolteae = MraY from C. bolteae (Enterocloster bolteae, UniProt R0BTE9); assay: Fluorescence-based in vitro MraY assay, MraY from C. bolteae; type: biochemical, Clostridium bolteae; details: IC50 ± SD
[1] = molecular target: T2, MraY from Aquifex aeolicus (Aquifex aeolicus, UniProt O66465); type: biochemical
T2 sequence (O66465 1-359): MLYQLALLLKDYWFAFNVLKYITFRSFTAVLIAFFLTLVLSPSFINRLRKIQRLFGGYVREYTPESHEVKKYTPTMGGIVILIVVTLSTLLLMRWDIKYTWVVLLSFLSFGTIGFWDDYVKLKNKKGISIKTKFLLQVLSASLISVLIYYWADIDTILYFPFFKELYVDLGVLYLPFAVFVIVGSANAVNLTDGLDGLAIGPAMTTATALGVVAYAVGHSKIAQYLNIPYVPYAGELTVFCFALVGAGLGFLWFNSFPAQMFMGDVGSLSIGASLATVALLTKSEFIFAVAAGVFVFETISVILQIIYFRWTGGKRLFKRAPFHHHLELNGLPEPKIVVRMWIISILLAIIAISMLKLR

[2] = system: E. coli efflux-deficient ΔtolC mutant; assay: Minimal inhibitory concentration against growth of E. coli ΔtolC; type: cell-based
E. coli DH5α strain = assay: Minimal inhibitory concentration against growth of E. coli DH5α; type: cell-based; details: Escherichia coli, read-out: MIC (E. coli DH5α)
[3] = system: S. aureus subsp. aureus (Newman strain); assay: Minimal inhibitory concentration against growth of S. aureus; type: cell-based
[4] = read-out: IC50 (MraY S. aureus), crude membranes, IC50 ± SD
[5] = read-out: IC50 (MraY C. bolteae crude), protein in crude membranes
[6] = read-out: IC50 (MraY C. bolteae solubil.), protein in solubilized and purified form
[7] = read-out: IC50 (MraY Aquifex aeolicus), solubilized and purified form, IC50 ± SD
[8] = IC50 (MraY C. bolteae crude), protein in crude membranes
[9] = IC50 (MraY C. bolteae solubil.), protein in solubilized and purified form

CO[C@H]1[C@H](O[C@H]([C@H]2O[C@@H](n3ccc(=O)[nH]c3=O)[C@H](O)[C@@H]2O)[C@H](NCCCNC(=O)[C@@H](NC(=O)[C@@H](NC(=O)N[C@H](C(=O)O)C(C)C)[C@@H]2CCN=C(N)N2)[C@@H](OC(=O)CCCCCCC(C)C)C(C)C)C(=O)O)O[C@H](CN)[C@H]1O [B2 4, muraymycin B2]
IC50 (MraY from S. aureus; [4]): 0.01 ± 0.002 nM | IC50 (MraY from C. bolteae; [5]): 0.0083 nM | IC50 (MraY from C. bolteae; [6]): 0.14 ± 0.01 nM | IC50 [1, 7]: 0.11 ± 0.01 nM | MIC (E. coli ΔtolC) [2]: 1 µg/mL (≈ 0.909 µM) | MIC (E. coli DH5α strain): > 32 µg/mL

CO[C@H]1[C@H](O[C@H]([C@H]2O[C@@H](n3ccc(=O)[nH]c3=O)[C@H](O)[C@@H]2O)[C@H](NCCCNC(=O)[C@@H](NC(=O)[C@@H](NC(=O)N[C@H](C(=O)O)C(C)C)[C@@H]2CCNC(=N)N2)[C@@H](OC(=O)CCCCCCCCCCCCN(O)C(=N)N)C(C)C)C(=O)O)O[C@H](CN)[C@H]1O [A1 3, muraymycin A1]
IC50 (MraY from S. aureus; [4]): 0.027 ± 0.003 nM | IC50 (MraY from C. bolteae; [5]): 0.017 nM | IC50 (MraY from C. bolteae; [6]): 0.16 ± 0.04 nM | IC50 [1, 7]: 0.11 ± 0.02 nM | MIC (E. coli ΔtolC) [2]: 2 µg/mL (≈ 1.65 µM) | MIC (E. coli DH5α strain): > 32 µg/mL | antibacterial activity against S. aureus in words [3]: only congener with notable activity against S. aureus

CC(C)C[C@H](NC(=O)[C@@H](NC(=O)N[C@H](C(=O)O)C(C)C)[C@@H]1CCNC(=N)N1)C(=O)NCCCN[C@H](C(=O)O)[C@H](O[C@@H]1O[C@H](CN)[C@@H](O)[C@H]1O)[C@H]1O[C@@H](n2ccc(=O)[nH]c2=O)[C@H](O)[C@@H]1O [D2 8, muraymycin D2]
IC50 (MraY from S. aureus): 0.39 ± 0.11 nM | IC50 (MraY from C. bolteae; [8]): 25 nM | IC50 (MraY from C. bolteae; [9]): 200 ± 30 nM | IC50 [1]: 46 ± 13 nM | MIC (E. coli ΔtolC) [2]: 1 µg/mL (≈ 1.09 µM) | MIC (E. coli DH5α strain): > 32 µg/mL

CO[C@H]1[C@H](O[C@H]([C@H]2O[C@@H](n3ccc(=O)[nH]c3=O)[C@H](O)[C@@H]2O)[C@H](NCCCNC(=O)[C@H](CC(C)C)NC(=O)[C@@H](NC(=O)N[C@H](C(=O)O)C(C)C)[C@@H]2CCNC(=N)N2)C(=O)O)O[C@H](CN)[C@H]1O [D1 7, muraymycin D1]
IC50 (MraY from S. aureus): 0.48 ± 0.13 nM | fold difference in MraY inhibition between C1 6 and D1 7 (MraY from S. aureus; crude membranes only (S. aureus and C. bolteae MraY)): 30- to 430 fold | fold less active MraY inhibitor than C1 6 (S. aureus) (MraY from S. aureus; crude membranes, relative to C1 6): ca. 30 fold | IC50 (MraY from C. bolteae; [8]): 40 nM | IC50 (MraY from C. bolteae; [9]): 380 ± 110 nM | IC50 [1]: 99 ± 30 nM | fold lower inhibitory activity than C1 6 (Aquifex aeolicus) ([1]; solubilized Aquifex aeolicus protein, relative to C1 6): ca. 280 fold | MIC (E. coli ΔtolC) [2]: 1 µg/mL (≈ 1.08 µM) | MIC (E. coli DH5α strain): > 32 µg/mL

CO[C@H]1[C@H](O[C@H]([C@H]2O[C@@H](n3ccc(=O)[nH]c3=O)[C@H](O)[C@@H]2O)[C@H](NCCCNC(=O)[C@@H](NC(=O)[C@@H](NC(=O)N[C@H](C(=O)O)C(C)C)[C@@H]2CCN=C(N)N2)[C@@H](OC(=O)CCCCC(C)C)C(C)C)C(=O)O)O[C@H](CN)[C@H]1O [B6 5, muraymycin B6]
IC50 (MraY from S. aureus; [4]): 0.021 ± 0.002 nM | IC50 (MraY from C. bolteae; [5]): 0.036 nM | IC50 (MraY from C. bolteae; [6]): 0.38 ± 0.03 nM | IC50 [1, 7]: 0.19 ± 0.02 nM | MIC (E. coli ΔtolC) [2]: 1 µg/mL (≈ 0.933 µM) | MIC (E. coli DH5α strain): > 32 µg/mL

CO[C@H]1[C@H](O[C@H]([C@H]2O[C@@H](n3ccc(=O)[nH]c3=O)[C@H](O)[C@@H]2O)[C@H](NCCCNC(=O)[C@@H](NC(=O)[C@@H](NC(=O)N[C@H](C(=O)O)C(C)C)[C@@H]2CCNC(=N)N2)[C@@H](O)C(C)C)C(=O)O)O[C@H](CN)[C@H]1O [C1 6, muraymycin C1]
IC50 (MraY from S. aureus): 0.016 ± 0.002 nM | IC50 (MraY from C. bolteae; [8]): 0.093 nM | IC50 (MraY from C. bolteae; [9]): 0.45 ± 0.17 nM | MIC (E. coli ΔtolC) [2]: 1 µg/mL (≈ 1.06 µM) | MIC (E. coli DH5α strain): > 32 µg/mL
